{
  "source": "paper PMC10541198",
  "about": "“Specific quinone reductase 2 inhibitors reduce metabolic burden and reverse Alzheimer’s disease phenotype in mice” (The Journal of Clinical Investigation, 2023)",
  "key": {"[1]": {"system": "5xFAD mice", "test": "General wellbeing / adverse effects during 1 month ingestion", "assay_type": "in vivo, mouse", "settings": "8-to-9-month-old 5xFAD, both sexes, 50 mg/kg in drinking water, month-long", "experimental": "We next aimed to test the effect of QR2 inhibition in AD model mice using YB-537, taking advantage of its extremely high specificity, solubility, and lack of toxicity. First, we determined YB-537 pharmacokinetics (PK) and oral bioavailability and assessed any acute observable toxicity in mice. […] We therefore opted to chronically deliver YB-537 to AD-model mice via their drinking water, so they may freely ingest the inhibitor at 50 mg/kg, with minimal intervention or trauma, for 1 month. We chose 9-month-old 5xFAD ([27]) male and female mice in double-blind experiments, so that well-progressed symptoms and pathologies would be present, to mimic clinically relevant cases in human patients ([35]), as has been previously described in this mouse model. Other than an improvement in nest quality ([36]) over time seen in animals receiving YB-537 (starting at age 8 months and ending at age 9 months), no changes to general physical parameters or wellbeing were observed over the 1 month of YB-537 ingestion (Supplemental Figure 6, A–J). […] Since learning in this paradigm was slow, and performance was poor even following 6 days of training (using 4 learning trials a day), a test day was not carried out and instead only the learning rate was measured. […]"}, "[2]": {"system": "5xFAD mice", "test": "Delay fear conditioning in 5xFAD mice, YB-537 in drinking water", "assay_type": "in vivo, mouse", "design": "Figure 8A, delay fear conditioning: unit not given here", "settings": "for freezing to conditioned context (individual mice) / freezing to conditioned cue (individual mice): in % (unit assumed); for Figure 8A, delay fear conditioning: individual animals", "experimental": "We next aimed to test the effect of QR2 inhibition in AD model mice using YB-537, taking advantage of its extremely high specificity, solubility, and lack of toxicity. First, we determined YB-537 pharmacokinetics (PK) and oral bioavailability and assessed any acute observable toxicity in mice. […] We therefore opted to chronically deliver YB-537 to AD-model mice via their drinking water, so they may freely ingest the inhibitor at 50 mg/kg, with minimal intervention or trauma, for 1 month. We chose 9-month-old 5xFAD ([27]) male and female mice in double-blind experiments, so that well-progressed symptoms and pathologies would be present, to mimic clinically relevant cases in human patients ([35]), as has been previously described in this mouse model. Other than an improvement in nest quality ([36]) over time seen in animals receiving YB-537 (starting at age 8 months and ending at age 9 months), no changes to general physical parameters or wellbeing were observed over the 1 month of YB-537 ingestion (Supplemental Figure 6, A–J). Animals received the treatment for a week, and, on week 2, behavioral experiments commenced, including Morris water maze (MWM) and novel object recognition (NOR). These were carried out in parallel, with half of the animals (including both sexes and treatments) undergoing 1 of the paradigms in week 2, and the other in week 3. […] Since learning in this paradigm was slow, and performance was poor even following 6 days of training (using 4 learning trials a day), a test day was not carried out and instead only the learning rate was measured. […] Finally, during week 4, all the mice underwent DFC.\nSince 1 month of chronic YB-537 ingestion rescued cognitive and pathological phenotypes more efficiently in female compared with male 5xFAD mice, we hypothesized that males may require a longer dosing regimen than females in order achieve a similar therapeutic effect. We therefore ran an additional experiment where we treated 5-month-old male 5xFAD mice with 50 mg/kg of YB-537 in drinking water for 4 months (starting at the age of 5 months, and ending at the age of 9 months, similar to the experiment described above), and compared cognitive performance to male 5xFAD and WT control mice of the same age not being treated with YB-537, using DFC in double-blind experiments.\nDFC was done as previously described ([7]). Briefly, mice were given 2 minutes to explore the conditioning chambers, during which baseline freezing was measured. Then, a 20 second, 4 kHz, 80 dB tone was given, coterminating with the start of a 2 second, 0.5 mA foot-shock. This was repeated twice more in 1 minute intervals. Following the third and last bout, 1 minute was given before the animals were removed from the chambers. The next day, the animals were returned to the room under the same conditions and were placed back into the chambers, and freezing to the context was measured over the course of 5 minutes. The next day, the mice were brought to unfamiliar conditioning rooms and chambers. In this unfamiliar context, the protocol from the first day was repeated, except without the foot shocks. Freezing for the cue was recorded, starting from the sounding of the first tone. All measurements were taken with a Sentec stc-tb33usb-at camera, and analysis was done with Freeze Frame software (Actimetrics). […]\nonly, and kept there for 2 min. They were then placed inside a Habitest Operant Cage, within a Habitest Isolation Cubicle (Coulbourn), on a modular shock floor made of 16 m et al grids, connected to Precision Animal Shockers (Coulbourn) with illumination inside the cage coming from a 20 W bulb. Themice were given 2 min to explore, during which baseline freezing was measured. Then, a 20 s, 4 kHz, 80 dB tone was given, co- terminating with the start of a 2 s, 0.5 mA foot-shock, which was repeated a further two times, each having 1 min interval. Following the third, and last of these bouts, 1 min was given prior to the animals being removed from the chambers. […]"}},
  "note": "Where “and” joins values, the source holds several entries; their conditions need not be identical. Equal entries are not always repeated.",
  "data": [
    {"compound": "Cc1ccc(-c2cn3cccc(C)c3n2)cc1S(=O)(=O)N1CCNCC1", "note": "[YB-537]", "values": [
      {"measurement": "adverse effects of chronic ingestion", "setting": "[1]", "result": "no adverse effects were seen"},
      {"measurement": "freezing to conditioned context (individual mice)", "setting": "[2]; 5xFAD 1 month, both sexes", "result": "26.3 and 36.9 and 45.3 and 29.6 and 49.0 and 37.4 and 41.6 and 45.9 and 41.9 and 40.7 and 24.2 and 16.0 and 23.6 and 22.5 and 44.6 and 33.3"},
      {"measurement": "freezing to conditioned cue (individual mice)", "setting": "[2]; 5xFAD 1 month, both sexes", "result": "15.0 and 17.0 and 24.7 and 22.5 and 22.1 and 14.0 and 31.4 and 12.7 and 18.5 and 20.4 and 8.8 and 16.5 and 7.1 and 13.0 and 5.4 and 14.5"},
      {"measurement": "freezing to conditioned context (individual mice)", "setting": "[2]; 5xFAD 1 month, females", "result": "26.3 and 36.9 and 16.0 and 23.6 and 22.5 and 44.6 and 33.3"},
      {"measurement": "freezing to conditioned cue (individual mice)", "setting": "[2]; 5xFAD 1 month, females", "result": "15.0 and 17.0 and 16.5 and 7.1 and 13.0 and 5.4 and 14.5"},
      {"measurement": "freezing to conditioned context (individual mice)", "setting": "[2]; 5xFAD 1 month, males", "result": "45.9 and 41.9 and 40.7 and 24.2 and 45.3 and 29.6 and 49.0 and 37.4 and 41.6"},
      {"measurement": "freezing to conditioned cue (individual mice)", "setting": "[2]; 5xFAD 1 month, males", "result": "12.7 and 18.5 and 20.4 and 8.8 and 24.7 and 22.5 and 22.1 and 14.0 and 31.4"},
      {"measurement": "Figure 8A, delay fear conditioning", "setting": "[2]; Baseline", "result": "11.3 and 26.4 and 19.1 and 15.1 and 10.9 and 6.4 and 3.1 and 7.6 and 8.2"},
      {"measurement": "Figure 8A, delay fear conditioning", "setting": "[2]; CS/US 1", "result": "31.6 and 45.2 and 36.2 and 37.7 and 37.5 and 20.1 and 19.4 and 47.6 and 48.9"},
      {"measurement": "Figure 8A, delay fear conditioning", "setting": "[2]; CS/US 2", "result": "48.3 and 58.0 and 52.7 and 47.1 and 45.6 and 18.2 and 23.2 and 57.0 and 60.3"},
      {"measurement": "Figure 8A, delay fear conditioning", "setting": "[2]; CS/US 3", "result": "62.5 and 61.5 and 55.2 and 55.7 and 52.0 and 17.2 and 31.2 and 65.3 and 57.9"},
      {"measurement": "learning during delay-fear conditioning", "setting": "[2]; male 5xFAD, 50 mg/kg in drinking water 4 months", "result": "normal learning"},
      {"measurement": "freezing to conditioned context (individual mice)", "setting": "[2]; male 5xFAD, 4 months", "result": "24.6 and 26.8 and 50.3 and 22.2 and 32.3 and 63.4 and 63.3 and 75.1 and 38.8"},
      {"measurement": "freezing to conditioned cue (individual mice)", "setting": "[2]; male 5xFAD, 4 months", "result": "44.3 and 66.5 and 54.4 and 28.0 and 38.6 and 64.3 and 47.4 and 65.9 and 58.0"},
      {"measurement": "learning during delay fear conditioning", "setting": "[2]; male and female 5xFAD, 1 month in drinking water", "result": "no difference observed across groups"}
    ]}
  ]
}
